EP2582674B1 (Cymabay Therapeutics, Inc., priority 2010, dated 2011)

Molecular target: T1, human GPR120 (Homo sapiens, UniProt Q5NUL3)
T1 construct: host or cells: HEK293 cells co-expressing Gqi5
T1 sequence (Q5NUL3 1-361): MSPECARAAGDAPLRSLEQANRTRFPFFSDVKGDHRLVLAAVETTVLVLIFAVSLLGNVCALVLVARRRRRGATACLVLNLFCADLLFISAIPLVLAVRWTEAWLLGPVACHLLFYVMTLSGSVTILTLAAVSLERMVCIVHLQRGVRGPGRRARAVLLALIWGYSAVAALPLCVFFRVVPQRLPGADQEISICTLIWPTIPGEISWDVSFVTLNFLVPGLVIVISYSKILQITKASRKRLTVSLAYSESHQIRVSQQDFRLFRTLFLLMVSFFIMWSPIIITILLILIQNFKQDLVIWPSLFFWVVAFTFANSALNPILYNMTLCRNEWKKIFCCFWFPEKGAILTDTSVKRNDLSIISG
Assay: Intracellular Ca2+ assay in human GPR120 stable cell line (FLIPR Calcium 4 dye, Flexstation)
Type: cell-based
Settings: % activity at 2.5 µM compared to the maximal activity of the compound of Example 25 at 2.5 µM (=100%); HEK293 cells co-expressing Gqi5
Method: Human GPR120 stable cell line was purchased from Multispan Inc (26219 Eden Landing Road, Hayward, CA94545). This GPR120 cell line was generated in HEK293 cells co-expressing Gqi5. In this cell line, the Flag epitope tag (DYKDDDDK) was fused to the amino terminus of human GPR120 protein.
The concentration of intracellular Ca^2+ was measured as described below. Human GPR120 cells were plated in 96 well plates (Poly-D-Lysine coated black/clear Plate, Greiner Bio-One) at 70,000 cells per well and cultured overnight in conditions of 37°C and 5% CO2. A Ca^2+ assay dye stock solution was prepared by adding 10 mL of assay buffer (HBSS/20mM HEPES, pH 7.4) to FLIPR Calcium 4 Assay Bulk Kit (Molecular Devices). The 10 mL of Ca^2+ assay dye solution was prepared by further diluting 0.5 mL of Ca^2+ assay dye stock solution with 10 mL of assay buffer. The medium of the cells was removed and immediately 100 µL of the Ca^2+ assay dye solution was dispensed into each well followed by incubation at 37°C and 5% CO2 for 50 minutes to incorporate the Ca^2+ dye into the cells. The cell plate was then placed in the Flexstation (Molecular Devices) for 20 minutes at 37°C. Compounds were dissolved in 100% DMSO and diluted to desired concentrations with assay buffer and placed in the Flexstation simultaneously with the cell plate for 20 minute incubation at 37°C prior to reading. Fluorescence intensity was measured immediately following compound addition (25 µL/well) on the Flexstation at an excitation wavelength of 485 nm and an emission wavelength of 525 with 515 nm auto cutoff. The resulting increase in fluorescence intensities corresponds to increases in intracellular Ca^2+ levels.
Compounds were dissolved in 100% DMSO to a concentration of 20 mM to provide stock solutions. To determine activity against human GPR120, compounds were added with human GPR120 stably expressing cells (described above), at eight desired concentrations ranging from 0.00001 to 20 µM, in 96 well plates and fluorescence intensities were measured for 90 seconds with 2-second intervals. An EC50 value (concentration of the GPR120 agonist where 50% of the agonist's maximal activity is observed) was calculated using the changes (Max-Min) of fluorescence intensity.
To determine percent activity for a tested compound, the fluorescence intensity value obtained at a particular concentration were compared to the maximal fluorescence intensity value obtained for reference compound GW9508 (4-[[(3-phenoxyphenyl)methyl]amino]benzene propanoic acid; British Journal of Pharmacology 2006 148, 619-628) or the compound of Example 25. When GW9508 was used as the reference compound, the maximal activity of GW9508 at 6.7µM was designated as 100% activity. When the compound of Example 25 was used as the reference compound, the maximal activity of the compound of Example 25 at 2.5 µM was designated as 100% activity. Typically, the GW9508 activity reached a maximum at a concentration of approximately 6.7 µM and typically the compound of Example 25 reached a maximum activity at approximately 2.5µM. […]

% Activity (Ex. 25 Reference Compound)	Compound
95.58%	CC1(C)Cc2cc(F)cc(COc3c(F)cc(CC4CC4C(=O)O)cc3F)c2O1 (single isomer, unassigned) [Example 184A, 2-(3,5-difluoro-4-((5-fluoro-2,2-dimethyl-2,3-dihydrobenzofuran-7-yl)methoxy)benzyl)cyclopropanecarboxylic acid]
97.04%	CC1(C)Cc2cc(F)cc(COc3c(F)cc(CC4CC4C(=O)O)cc3F)c2O1 (stereo not drawn) [Example 184, 2-(3,5-difluoro-4-((5-fluoro-2,2-dimethyl-2,3-dihydrobenzofuran-7-yl)methoxy)benzyl)cyclopropanecarboxylic acid]
105.8%	CC1(C)Cc2cc(F)cc(COc3ccc(C4CC4C(=O)O)cc3)c2O1 (stereo not drawn) [Example 131B, 2-(4-((5-fluoro-2,2-dimethyl-2,3-dihydrobenzofuran-7-yl)methoxy)phenyl) cyclopropanecarboxylic acid]

Same assay, conditions: HEK293, % activity at 2.5 µM compared to the maximal activity of the compound of Example 25 at 2.5 µM (=100%); HEK293 cells co-expressing Gqi5; read-out: % Activity (Ex. 25 Reference Compound)

Compound	activity at 2.5 µM
CC1(C)Cc2c(ccc(F)c2COc2c(F)cc(C3CC3C(=O)O)cc2F)O1 (stereo not drawn) [Example 99, 2-(3,5-difluoro-4-((5-fluoro-2,2-dimethyl-2,3-dihydrobenzofuran-4-yl)methoxy)phenyl)cyclopropanecarboxylic acid]	102%
CC(Cc1cc(F)c(OCc2c(F)c(F)cc3c2OC(C)(C)C3)c(F)c1)C(=O)O (stereo not drawn) [Example 42, 3-(4-((5,6-difluoro-2,2-dimethyl-2,3-dihydrobenzofuran-7-yl)methoxy)-3,5-difluorophenyl)-2-methylpropanoic acid]	141%
COc1cc(CCC(=O)O)c(Br)cc1OCc1cc(F)cc2c1OC(C)(C)C2 [Example 56, 3-(2-bromo-4-((5-fluoro-2,2-dimethyl-2,3-dihydrobenzofuran-7-yl)methoxy)-5-methoxyphenyl)propanoic acid]	109%
CCN(CC)c1cc(COc2ccc(CC(C)C(=O)O)cc2)c2c(c1)CC(C)(C)O2 (stereo not drawn) [Example 89, 3-(4-((5-(diethylamino)-2,2-dimethyl-2,3-dihydrobenzofuran-7-yl)methoxy)phenyl)-2-methylpropanoic acid]	82.3%

The next lines start with the values.

activity at 2.5 µM	Compound
117%	Cc1cc2cccc(COc3c(F)cc(CC(C)C(=O)O)cc3F)c2s1 (stereo not drawn) [Example 151, 3-(3,5-difluoro-4-((2-methylbenzo[b]thiophen-7-yl)methoxy)phenyl)-2-methylpropanoic acid]
141%	Cc1c(CCC(=O)O)ccc(OCc2cc(Cl)cc3c2CC(C)(C)O3)c1C [Example 267, 3-(4-((6-chloro-2,2-dimethyl-2,3-dihydrobenzofuran-4-yl)methoxy)-2,3-dimethylphenyl)propanoic acid]
152%	CC1(C)Cc2cc(F)cc(COc3ccc4c(c3)CC[C@H]4CC(=O)O)c2O1 [Example 175, (S)-2-(5-((5-fluoro-2,2-dimethyl-2,3-dihydrobenzofuran-7-yl)methoxy)-2,3-dihydro-1H-inden-1-yl)acetic acid]
32.6%	Cc1cc2c(OCc3cc(F)cc4c3OC(C)(C)C4)ccc(CCC(=O)O)c2o1 [Example 125, 3-(4-((5-fluoro-2,2-dimethyl-2,3-dihydrobenzofuran-7-yl)methoxy)-2-methylbenzofuran-7-yl)propanoic acid]
140%	CC(C)Oc1ccc(Cl)cc1COc1ccc2c(c1)CCC2CC(=O)O (stereo not drawn) [Example 258, 2-(5-((5-chloro-2-isopropoxybenzyl)oxy)-2,3-dihydro-1H-inden-1-yl)acetic acid]

Same assay, conditions: HEK293, % activity at 5 µM compared to the maximal activity of GW9508 at 6.7 µM (=100%); HEK293 cells co-expressing Gqi5; read-out: %Activity (GW9508 Reference Compound)

activity at 5 µM	Compound
113%	CC(Cc1cc(F)c(OCc2cccc3c2OC(C)(C)C3)c(F)c1)C(=O)O (stereo not drawn) [Example 23, 3-(4-((2,2-dimethyl-2,3-dihydrobenzofuran-7-yl)methoxy)-3,5-difluorophenyl)-2-methylpropanoic acid]
135%	CC(Cc1ccc(OCc2cc(F)cc3c2OC(C)(C)C3)c(F)c1)C(=O)O (stereo not drawn) [Example 8, 3-(3-fluoro-4-((5-fluoro-2,2-dimethyl-2,3-dihydrobenzofuran-7-yl)methoxy)phenyl)-2-methylpropanoic acid]

Same assay, conditions: eight concentrations from 0.00001 to 20 µM; changes (Max-Min) of fluorescence intensity

EC50	Compound
1 to 10 µM	CC(Cc1cc(F)c(OCc2c(F)c(F)cc3c2OC(C)(C)C3)c(F)c1)C(=O)O (stereo not drawn) [Example 42, 3-(4-((5,6-difluoro-2,2-dimethyl-2,3-dihydrobenzofuran-7-yl)methoxy)-3,5-difluorophenyl)-2-methylpropanoic acid]
